Measured values: PMC8231992, “Protease Substrate-Independent Universal Assay for Monitoring Digestion of Native Unmodified Proteins” (International Journal of Molecular Sciences, 2021)

Molecular target: T1, papain (Carica papaya, UniProt P00784)
T1 sequence (P00784 134-345): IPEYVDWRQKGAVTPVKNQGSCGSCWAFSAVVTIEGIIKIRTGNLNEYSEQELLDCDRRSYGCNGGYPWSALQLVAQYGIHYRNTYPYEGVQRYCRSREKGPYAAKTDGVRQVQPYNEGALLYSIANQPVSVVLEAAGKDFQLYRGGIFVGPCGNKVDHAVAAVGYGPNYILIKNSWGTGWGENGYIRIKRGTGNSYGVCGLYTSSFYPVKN
Test: protein-probe time-resolved luminescence digestion assay, heat-denatured carbonic anhydrase substrate ([…] with native substrate)
Type: biochemical

IC50: 8.9 ± 0.9 nM
Structure (SMILES): CC(C)C[C@H](NC(=O)[C@H]1O[C@@H]1C(=O)O)C(=O)NCCCCN=C(N)N [E-64]
